Where two headings read alike, the source gives them in different places.
Test system: HCV 1b genotype
Assay: microbe, parasite or virus in culture
Type: cell-based, Hepatitis C virus
Conditions: HCV 1b replicon
Description: An HCV Replicon assay was utilized in the present disclosure, and was prepared, conducted and validated as described in commonly owned PCT/US2006/022197 and in O'Boyle et. al. Antimicrob Agents Chemother. 2005 April; 49(4):1346-53. Assay methods incorporating luciferase reporters have also been used as described (Apath.com).
HCV-neo replicon cells and replicon cells containing resistance substitutions in the NS5A region were used to test the currently described family of compounds.

[1] = Hepatitis C virus, read-out: Range: EC50 ranges against HCV 1b
[2] = read-out: Range: EC50 ranges against HCV 1b
[3] = Hepatitis C virus, read-out: 1b (μM): EC50 (Effective 50% inhibitory concentration) against the HCV 1b genotype

Row | Compound | EC50 [1] | EC50 [2] | EC50 [3]
1 | COC(=O)NC(C(=O)N1[C@@H]2C[C@@H]2C[C@H]1c1ncc(-c2ccc(-c3ccc(-c4cnc([C@@H]5C[C@H]6C[C@H]6N5C(=O)[C@@H](NC(=O)OC)C(C)C)[nH]4)cc3)cc2)[nH]1)C1CCOC2(CC2)C1 (stereo partly drawn) [OL3, methyl ((2S)-1-((1R,3S,5R)-3-(5-(4′-(2-((1R,3S,5R)-2-(((methoxycarbonyl)amino)(4-oxaspiro[2.5]oct-7-yl)acetyl)-2-azabicyclo[3.1.0]hex-3-yl)-1H-imidazol-5-yl)biphenyl-4-yl)-1H-imidazol-2-yl)-2-azabicyclo[3.1.0]hex-2-yl)-3-methyl-1-oxobutan-2-yl)carbamate] | 0.00501 to 0.1 nM | – | –
2 | COC(=O)NC(C(=O)N1CC(C)CC1c1ncc(-c2ccc(C3CC3c3ccc(-c4cnc(C5CC(C)CN5C(=O)C(NC(=O)OC)C5CCOC6(CC6)C5)[nH]4)cc3)cc2)[nH]1)C1CCOC2(CC2)C1 [Example OL1, dimethyl (((3S,3′S,5S,5′S)-5,5′-(5,5′-((1S,2S)-cyclopropane-1,2-diylbis(4,1-phenylene))bis(1H-imidazole-5,2-diyl))bis(3-methylpyrrolidine-5,1-diyl))bis(2-oxo-1-(4-oxaspiro[2.5]octan-7-yl)ethane-2,1-diyl))dicarbamate] | – | 0.00501 to 0.1 nM | –
3 | methyl (2-((2S)-2-(7-(2-((2S)-1-(((methoxycarbonyl)amino)(4-oxaspiro[2.5]oct-7-yl)acetyl)-2-pyrrolidinyl)-1H-benzimidazol-5-yl)-4,5-dihydro-1H-naphtho[1,2-d]imidazol-2-yl)-1-pyrrolidinyl)-1-(4-oxaspiro[2.5]oct-7-yl)-2-oxoethyl)carbamate [QC12] | – | 0.1 to 0.9 nM | –
4 | C#C[C@H]1CC[C@@H](c2ncc(-c3ccc(-c4ccc(-c5cnc([C@@H]6CC[C@H](C#C)N6C(=O)[C@@H](NC(=O)OC)C6C[C@@H](C)O[C@H](C)C6)[nH]5)cc4)cc3)[nH]2)N1C(=O)[C@@H](NC(=O)OC)C1C[C@@H](C)O[C@H](C)C1 (stereo partly drawn) [Example 10, dimethyl (4,4′-biphenyldiylbis(1H-imidazole-5,2-diyl((2S,5R)-5-ethynyl-2,1-pyrrolidinediyl)((1S)-1-((2R,6R)-2,6-dimethyltetrahydro-2H-pyran-4-yl)-2-oxo-2,1-ethanediyl)))biscarbamate] | 0.00501 to 0.1 nM | – | –
5 | COC(=O)NC(C(=O)N1[C@@H](C)CC[C@H]1c1nc(-c2ccc(-c3ccc(-c4c[nH]c([C@@H]5CC[C@H](C)N5C(=O)C(NC(=O)OC)=C5CC(C)(C#N)C5)n4)cc3)cc2)c[nH]1)=C1CC(C)(C#N)C1 (stereo partly drawn) [Example 12.1, dimethyl (4,4′-biphenyldiylbis(1H-imidazole-4,2-diyl((2S,5S)-5-methyl-2,1-pyrrolidinediyl)(1-(3-cyano-3-methylcyclobutylidene)-2-oxo-2,1-ethanediyl)))biscarbamate] | 0.9 to 700 nM | – | –
6 | COC(=O)NC(C(=O)N1[C@@H](C)CC[C@H]1c1nc(-c2ccc(-c3ccc(-c4c[nH]c([C@@H]5CC[C@H](C)N5C(=O)C(NC(=O)OC)=C5CC(C)(C#N)C5)n4)cc3)cc2)c[nH]1)=C1CC(C)(C#N)C1 (stereo partly drawn) [Example 12.2, dimethyl (4,4′-biphenyldiylbis(1H-imidazole-4,2-diyl((2S,5S)-5-methyl-2,1-pyrrolidinediyl)(1-(3-cyano-3-methylcyclobutylidene)-2-oxo-2,1-ethanediyl)))biscarbamate] | – | 0.9 to 700 nM | –
7 | COC(=O)N[C@H](C(=O)N1[C@@H](CO)CC[C@H]1c1ncc(-c2ccc(-c3ccc(-c4cnc([C@@H]5CC[C@H](CO)N5C(=O)[C@@H](NC(=O)OC)C5C[C@@H](C)O[C@H](C)C5)[nH]4)cc3)cc2)[nH]1)C1C[C@@H](C)O[C@H](C)C1 (single isomer, unassigned) [Example 11] | 0.9 to 700 nM | – | –
8 | COC(=O)NC(C(=O)N1CCC[C@H]1c1nc2cc(-c3ccc(Oc4cccc5[nH]c([C@@H]6CCCN6C(=O)C(NC(=O)OC)C6CCOC7(CC7)C6)nc45)cc3)ccc2[nH]1)C1CCOC2(CC2)C1 (stereo partly drawn) [QC15, methyl (2-((2S)-2-(5-(4-((2-((2S)-1-(((methoxycarbonyl)amino)(4-oxaspiro[2.5]oct-7-yl)acetyl)pyrrolidin-2-yl)-1H-benzimidazol-4-yl)oxy)phenyl)-1H-benzimidazol-2-yl)pyrrolidin-1-yl)-1-(4-oxaspiro[2.5]oct-7-yl)-2-oxoethyl)carbamate] | 0.00501 to 0.1 nM | – | –
9 | COC(=O)NC(C(=O)N1[C@@H](C)CC[C@H]1c1ncc(-c2ccc(-c3ccc(-c4cnc([C@@H]5CC[C@H](C)N5C(=O)C(NC(=O)OC)C5CCOC6(CCCC6)C5)[nH]4)cc3)cc2)[nH]1)C1CCOC2(CCCC2)C1 (single isomer, unassigned) [Example 3.3] | – | 0.00501 to 0.1 nM | 0.00504 nM
10 | COC(=O)NC(C(=O)N1C(c2ncc(-c3ccc(C#Cc4ccc(-c5cnc(C6CC7CC7N6C(=O)C(NC(=O)OC)C6CCOC7(CC7)C6)[nH]5)cc4)cc3)[nH]2)CC2CC21)C1CCOC2(CC2)C1 [OL4, dimethyl (((1R,1′R,3S,3′S,5R,5′R)-3,3′-(5,5′-(ethyne-1,2-diylbis(4,1-phenylene))bis(1H-imidazole-5,2-diyl))bis(2-azabicyclo[3.1.0]hexane-3,2-diyl))bis(2-oxo-1-(4-oxaspiro[2.5]octan-7-yl)ethane-2,1-diyl))dicarbamate] | – | 0.00501 to 0.1 nM | –
11 | COC(=O)NC(C(=O)N1CCC[C@H]1c1ncc(-c2ccc(-c3ccc(-c4cnc([C@@H]5CCCN5C(=O)C(NC(=O)OC)C5CCOC6(CC6)C5)[nH]4)cn3)cc2)[nH]1)C1CCOC2(CC2)C1 (stereo partly drawn) [OL6, methyl (2-((2S)-2-(5-(6-(4-(2-((2S)-1-(((methoxycarbonyl)amino)(4-oxaspiro[2.5]oct-7-yl)acetyl)pyrrolidin-2-yl)-1H-imidazol-5-yl)phenyl)pyridin-3-yl)-1H-imidazol-2-yl)pyrrolidin-1-yl)-1-(4-oxaspiro[2.5]oct-7-yl)-2-oxoethyl)carbamate] | 0.1 to 0.9 nM | – | –
12 | COC(=O)N[C@H](C(=O)N1[C@H](c2nc(-c3ccc(-c4ccc(-c5c[nH]c([C@@H]6C[C@@]7(C)C[C@H]7N6C(=O)[C@@H](NC(=O)OC)[C@H]6CCOC7(CC7)C6)n5)cc4)cc3)c[nH]2)C[C@@]2(C)C[C@@H]12)[C@H]1CCOC2(CC2)C1 [QC19, dimethyl (4,4′-biphenyldiylbis(1H-imidazole-4,2-diyl((1R,3S,5R)-5-methyl-2-azabicyclo[3.1.0]hexane-3,2-diyl)(1-(4-oxaspiro[2.5]oct-7-yl)-2-oxo-2,1-ethanediyl)))biscarbamate] | 0.00501 to 0.1 nM | – | –
13 | COC(=O)NC(C(=O)N1CCC[C@H]1c1nc2cc(-c3ccc4c(ccc5nc([C@@H]6CCCN6C(=O)C(NC(=O)OC)C6CCOC7(CC7)C6)[nH]c54)c3)ccc2[nH]1)C1CCOC2(CC2)C1 (stereo partly drawn) [QC10, methyl (2-((2S)-2-(7-(2-((2S)-1-(((methoxycarbonyl)amino)(4-oxaspiro[2.5]oct-7-yl)acetyl)-2-pyrrolidinyl)-1H-benzimidazol-5-yl)-1H-naphtho[1,2-d]imidazol-2-yl)-1-pyrrolidinyl)-1-(4-oxaspiro[2.5]oct-7-yl)-2-oxoethyl)carbamate] | 0.1 to 0.9 nM | – | 0.259 nM
14 | COC(=O)N[C@H](C(=O)N1[C@@H](CF)CC[C@H]1c1ncc(-c2ccc(-c3ccc(-c4cnc([C@@H]5CC[C@H](CF)N5C(=O)[C@@H](NC(=O)OC)[C@H]5CCOC6(CC6)C5)[nH]4)cc3)cc2)[nH]1)[C@H]1CCOC2(CC2)C1 [Example 8] | 0.00501 to 0.1 nM | – | –

Reference: US9561212B2, “Hepatitis C virus inhibitors” (BRISTOL-MYERS SQUIBB COMPANY, priority 2012, dated 2017)
